pIC50: −log10 of the molar value.
Assays:
P. falciparum strain D6 = test: [3H]-hypoxanthine growth inhibition assay, P. falciparum D6; assay type: cell-based; settings: Plasmodium falciparum; P. falciparum D6 (sensitive to chloroquine and pyrimethamine), [3H]-hypoxanthine incorporation; read-out: D6 IC50
Method in brief: (§1)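 Parasites cultured in human O Rh+ RBCs in RPMI-1640-LPLF (low PABA and folic acid) with 10% human plasma, pH 6.9, 37° C, 5% O2/5% CO2/90% N2. Sorbitol-synchronised ring-stage cultures started at 1% parasitaemia; growth measured as [3H]-hypoxanthine incorporation in hypoxanthine-free medium. Compound stocks 1 mM in DMSO.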

P. falciparum strain W2 = test: [3H]-hypoxanthine growth inhibition assay, P. falciparum W2; assay type: cell-based; settings: Plasmodium falciparum; P. falciparum W2 (resistant to chloroquine and pyrimethamine), [3H]-hypoxanthine incorporation; read-out: W2 IC50
Method in brief: as §1

Row | SMILES | pIC50 (P. falciparum strain D6) | pIC50 (P. falciparum strain W2)
1 | CC(C)(C)NCc1cc(C(C)(C)C)cc(-c2cnc(C(F)(F)F)nc2)c1O.Cl [Example 33, 4-(tert-Butyl)-2-((tert-butylamino)methyl)-6-(2-(trifluoromethyl)pyrimidin-5-yl)phenol hydrochloride] | 8.00 | 8.52
2 | CC(C)(C)NCc1cc(C(C)(C)C)cc(-c2ccc(C(F)(F)F)nc2)c1O.Cl [Example 1, 4-(tert-Butyl)-2-((tert-butylamino)methyl)-6-(6-(trifluoromethyl)pyridin-3-yl)phenol hydrochloride] | 7.89 | 8.40
3 | CC(C)(C)NCc1cc(C(C)(C)C)cc(-c2cnc(C(F)(F)F)c(F)c2)c1O.Cl [Example 34, 4-(tert-Butyl)-2-((tert-butylamino)methyl)-6-(5-fluoro-6-(trifluoromethyl)pyridin-3-yl)phenol hydrochloride] | 8.10 | 8.70
